One assay concerns MOLM-13 cells. Put plainly: Cell proliferation assay (alamarBlue), MOLM-13. Type of assay: cell-based. Conditions: Homo sapiens, 96 hours incubation, inhibition of cell proliferation. The protocol:
In accordance with the invention, the capability of the substances to inhibit cell proliferation was determined Cell viability was determined using the alamarBlue® reagent (Invitrogen) in a Victor X3 Multilabel Reader (Perkin Elmer). The excitation wavelength was 530 nm and the emission wavelenth […].
The MOLM-13 cells (DSMZ, ACC 554) were sown at a concentration of 4000 cells/well in 100 μl growth medium (RPMI1640, 10% FCS) on 96-well microtitre plates.
After an overnight incubation at 37° C., the fluorescence values (CI values) were determined. The plates were then treated with various substance dilutions (1E-5 M, 3E-6 M, 1E-6M, 3E-7 M, 1E-7 M, 3E-8 M, 1E-8 M) and incubated at 37° C. for 72 (MV4-11-, LOX-IMVI cells), 96 (MOLM-13-, B16F10-, MDA-MB-431-, Caov-3 cells), 120 (MOLP-8-, KMS-12-PE cells) or 168 (LAPC-4 cells) hours. The fluorescence values (CO values) were then determined. For the data analysis, the CI values were subtracted from the CO values and the results were compared between cells treated with different dilutions of the substance or with buffer solution only. These were used to calculate the IC 50 values (substance concentration required for 50% inhibition of cell proliferation).
For orientation: Alamar Blue is a resazurin reagent that responds to reducing activity.

A further assay concerns the target T1, BRD4 (BD1) (Homo sapiens, UniProt O60885).
T1 construct: with relatively long constructs also being possible, preferably amino acids 44-168; made in house; host or cells: E. coli
Put plainly: Binding assay BRD4/acetylated peptide H4 (TR-FRET protein-protein interaction assay). In outline:
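His6-BRD4 BD1 (aa 67-152, E. coli), usually 10 nM, with biotinylated tetra-acetylated H4 peptide in HEPES pH 7.5 buffer; 11 compound concentrations 0.1 nM–20 μM in duplicate, 10 min preincubation, 1 h at 22 °C then ≥3 h at 4 °C. TR-FRET 665/620 ratio; IC50 by 4-parameter fit.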
A general note: Time-resolved FRET reads energy transfer from a long-lived donor to a nearby acceptor.

Usually IC50 stands for the midpoint of a concentration-inhibition curve. Lower therefore signals higher potency. Consider `CNC(=O)N1N=C(c2ccc(-c3ccc(C)cc3)cc2)c2cc(OC)c(OC)cc2CC1C` (racemic) [Example 64, (±)-7,8-dimethoxy-N,4-dimethyl-1-(4′-methylbiphenyl-4-yl)-4,5-dihydro-3H-2,3-benzodiazepine-3-carboxamide], for which the figures for the half-inhibitory concentration (IC50) with MOLM-13 cells and on BRD4 (BD1) were 880 nM and 110 nM, respectively.
As to `CNC(=O)N1N=C(c2ccc(-c3ccc(OC)cc3)cc2)c2cc(OC)c(OC)cc2CC1C` (racemic) [Example 65, (±)-7,8-dimethoxy-1-(4′-methoxybiphenyl-4-yl)-N,4-dimethyl-4,5-dihydro-3H-2,3-benzodiazepine-3-carboxamide], the 50% inhibitory concentration (IC50) came out at 630 nM in the assay on MOLM-13 cells and 100 nM on BRD4 (BD1).
In the same order, the values of `CNC(=O)N1N=C(c2ccc(-c3ccc(OC)nc3)cc2)c2cc(OC)c(OC)cc2CC1C` (racemic) [Example 66, (±)-7,8-dimethoxy-1-[4-(6-methoxypyridin-3-yl)phenyl]-N,4-dimethyl-4,5-dihydro-3H-2,3-benzodiazepine-3-carboxamide] are 630 nM and 70 nM.
In the same order, the values of `CNC(=O)N1N=C(c2ccc(-c3ccc([S+](C)[O-])cc3)cc2)c2cc(OC)c(OC)cc2CC1C` (racemic) [Example 67, (±)-7,8-dimethoxy-N,4-dimethyl-1-[4′-(methylsulphinyl)biphenyl-4-yl]-4,5-dihydro-3H-2,3-benzodiazepine-3-carboxamide] are 470 nM and 40 nM.
As to `CNC(=O)N1N=C(c2ccc(-c3ccccc3NS(C)(=O)=O)cc2)c2cc(OC)c(OC)cc2CC1C` (racemic) [Example 68, (±)-7,8-dimethoxy-N,4-dimethyl-1-{2′-[(methylsulphonyl)amino]-biphenyl-4-yl}-4,5-dihydro-3H-2,3-benzodiazepine-3-carboxamide], the concentration for half-maximal inhibition (IC50) was determined as 1170 nM in the assay with MOLM-13 cells and 70 nM at BRD4 (BD1).
In the same order, the values of `CNC(=O)N1N=C(c2ccc(-c3ccccc3S(C)(=O)=O)cc2)c2cc(OC)c(OC)cc2CC1C` (racemic) [Example 69, (±)-7,8-dimethoxy-N,4-dimethyl-1-[2′-(methylsulphonyl)biphenyl-4-yl]-4,5-dihydro-3H-2,3-benzodiazepine-3-carboxamide] are 1210 nM and 130 nM.
In the same order, the values of `CNC(=O)N1N=C(c2ccc(-c3ccc(NS(C)(=O)=O)cc3)cc2)c2cc(OC)c(OC)cc2CC1C` (racemic) [Example 70, (±)-7,8-dimethoxy-N,4-dimethyl-1-{4′-[(methylsulphonyl)amino]biphenyl-4-yl}-4,5-dihydro-3H-2,3-benzodiazepine-3-carboxamide] are 300 nM and 40 nM.
In the same order, the values of `CNC(=O)N1N=C(c2ccc(-c3ccccc3C)cc2)c2cc(OC)c(OC)cc2CC1C` (racemic) [Example 72, (±)-7,8-dimethoxy-N,4-dimethyl-1-(2′-methylbiphenyl-4-yl)-4,5-dihydro-3H-2,3-benzodiazepine-3-carboxamide] are 660 nM and 210 nM.
Turning to `CNC(=O)N1N=C(c2ccc(-c3cccc(S(C)(=O)=O)c3)cc2)c2cc(OC)c(OC)cc2CC1C` (racemic) [Example 73, (±)-7,8-dimcthoxy-N,4-dimethyl-1-[3′-(methylsulphonyl)biphenyl-4-yl]-4,5-dihydro-3H-2,3-benzodiazepine-3-carboxamide], the IC50 was found to be 300 nM in the assay on MOLM-13 cells and 30 nM at BRD4 (BD1).
In the same order, the values of `CNC(=O)N1N=C(c2ccc(-c3cnc(OC)nc3)cc2)c2cc(OC)c(OC)cc2CC1C` (racemic) [Example 74, (±)-7,8-dimethoxy-1-[4-(2-methoxypyrimidin-5-yl)phenyl]-N,4-dimethyl-4,5-dihydro-3H-2,3-benzodiazepine-3-carboxamide] are 550 nM and 80 nM.

The values are drawn from patent US9890147B2 (BAYER PHARMA AKTIENGESELLSCHAFT, priority 2012, dated 2018).
